Measurements taken from the supplement of paper PMC10307832.

What follows are cell lines tested with COc1cc(-c2nn([C@H]3CC[C@H](N4CCN(C(C)=O)CC4)CC3)c3ncnc(N)c23)ccc1NC(=O)c1cc2ccccc2n1C + N=C(N)NC(=N)NCCc1ccccc1 [Phenformin] (partner 250 µM) (assay: relative viability (nuclei count vs DMSO), 5 days (fraction); higher = more cells survive). Details: first compound 0.04048 µM.
Method in brief: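 One day after seeding in 1536-well plates, lung cancer cell lines were dosed by pin tool. Dosing was either single-drug or a fixed anchor-drug dose plus five library-drug doses (not always all listed) in √10 steps. After 5 days, nuclei were stained in one fix-and-stain step and counted on 4× images, and relative viability is the nuclei count of treated wells over that of vehicle wells, given as the median of duplicate plates.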

Cell Line	relative viability
NCI-H2405	0.272
HOP-62	0.657
HCC-44	0.187
LU99A	0.59
BEN	0.272
HARA	0.533
HCC-78	0.789
NCI-H322M	0.816
LCLC-97TM1	0.377
NCI-H2009	0.433
NCI-H661	0.273
NCI-H1734	0.297
NCI-H460	0.553
SK-LU-1	0.425
201T	0.446
NCI-H1915	0.396
HCC-827	0.396
LXF-289	0.497
NCI-H23	0.835
NCI-H647	0.528
CAL-12T	0.465
NCI-H1651	0.329
NCI-H2228	0.26
NCI-H1792	0.288
NCI-H1355	0.401
NCI-H3122	0.35
NCI-H1437	0.303
NCI-H1755	0.547

Same assay, conditions: first compound 0.128 µM

Cell Line	relative viability
NCI-H2405	0.409
HOP-62	0.656
HCC-44	0.305
LU99A	0.85
BEN	0.276
HARA	0.41
HCC-78	0.601
NCI-H322M	0.743
LCLC-97TM1	0.461
NCI-H2009	0.511
A-427	0.268
NCI-H661	0.256
NCI-H1734	0.391
NCI-H460	0.501
NCI-H2347	0.482
SK-LU-1	0.48

Cell Line	relative viability
201T	0.401
NCI-H1915	0.375
HCC-827	0.406
LXF-289	0.492
NCI-H23	0.805
NCI-H647	0.428
CAL-12T	0.572
NCI-H1651	0.3
EPLC-272H	0.27
NCI-H2228	0.327
NCI-H1792	0.369
NCI-H1355	0.459
NCI-H3122	0.359
NCI-H1437	0.331
NCI-H1755	0.592

Same assay, conditions: first compound 1.28 µM

Cell Line	relative viability
NCI-H2405	0.28
HOP-62	0.709
HCC-44	0.22
LU99A	0.882
BEN	0.218
HARA	0.332
HCC-78	0.37
NCI-H322M	0.553
LCLC-97TM1	0.416
NCI-H2009	0.515
A-427	0.254
NCI-H661	0.261
NCI-H1734	0.379
NCI-H460	0.482
NCI-H2347	0.346
SK-LU-1	0.338
201T	0.353
